Tests used:
SIRT5 = target: T1, SIRT5 (Homo sapiens, UniProt Q9NXA8); test: Sirtuin inhibition assay (HPLC), SIRT5; type: biochemical
T1 construct: SIRT5 (34-302); made in house
T1 sequence (Q9NXA8 34-302): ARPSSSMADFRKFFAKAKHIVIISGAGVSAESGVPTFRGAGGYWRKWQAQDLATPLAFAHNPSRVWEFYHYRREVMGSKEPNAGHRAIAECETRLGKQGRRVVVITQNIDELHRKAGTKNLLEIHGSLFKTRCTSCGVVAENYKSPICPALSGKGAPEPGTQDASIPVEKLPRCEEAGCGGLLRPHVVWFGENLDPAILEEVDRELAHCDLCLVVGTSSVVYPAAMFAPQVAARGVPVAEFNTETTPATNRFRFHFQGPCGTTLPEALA
Description: (§1) Plasmids of SIRT1 (full length), SIRT2 (38-356), SIRT3 (102-399), and SIRT5 (34-302) were generous gifts from Dr. Hening Lin (Cornell University, Ithaca, NY, USA). SIRT6 was a gift from Cheryl Arrowsmith (Addgene plasmid #28271). The proteins were expressed and purified according to previously published protocols. The identity of the protein was confirmed by tryptic digestion followed by LC-MS/MS analysis performed at the Vermont Genetic Network (VGN) Proteomics Facility. Protein concentrations were determined by Bradford assay (Thermo Fisher Scientific, Rockford, IL, USA).
(§2) A typical reaction contained 500 μM NAD^+ and 500 μM peptide substrate (H3K9Ac for SIRT2, SIRT3 and SIRT6, p53K382Ac for SIRT1 and SIRT5) of varying concentrations of a small molecule probe in 100 mM phosphate buffer pH 7.5. The reactions were initiated by the addition of 10 μM of sirtuin and were incubated at 37 °C before being quenched by 8 μL of 10% TFA. The incubation time was controlled so that the conversion of substrate was less than 15%. The samples were then injected on an HPLC fitted to a Macherey-Nagel Nucleosil C18 column. NAD^+, NAM and AADPR (acetyl-ADP-ribose) peaks were resolved using a gradient of 0 to 20% methanol in 20 mM ammonium acetate. Chromatograms were analyzed at 260 nm. Reactions were quantified by integrating areas of peaks corresponding to NAD^+ and AADPR. Rates were plotted as a function of small molecule probe concentration, and points were fitted to the following equation:ν(%) = ν0(%) − [ν0(%)(10^x)/(10^x + IC50)](1) where ν(%) represents the turnover rate expressed as percent enzymatic activity remaining, and ν0(%) represents the uninhibited turnover rate expressed as an enzymatic activity of 100%. The variable x represents the log[probe] in nanomolar. IC50 values were derived from this equation.

[1] = test system: SIRT1, SIRT2, SIRT3, SIRT5, and SIRT6; test: Labeling in recombinant sirtuin mixture, isoform selectivity; type: biochemical, human
Description: Figure 4 Labeling of SIRT5 by probe 2B. (A) Dose-dependent labeling of SIRT5 by probe 2B in recombinantly expressed, partially purified sirtuin mixture. SIRT1, SIRT2, SIRT3, SIRT5, and SIRT6 were mixed and incubated with 500 μM NAD^+ and increasing concentrations of 2B. The samples were incubated at 37 °C for 10 min and subjected to UV irradiation for 20 min, and then “click” conjugated to TAMRA-azide; (B) Chemical structure of H3K9Suc; (C) Peptide competition. The labeling of SIRT5 by probe 2B decreased with increasing concentrations of the competitor peptide, H3K9Suc.
Remarkably, probe 2C was also able to label individual sirtuin isoforms in cell lysates. HEK293 cells overexpressing human SIRT2 were lysed, and the lysate was subjected to the labeling by 10 μM probe 2C.
A typical labeling experiment was performed as follows: in a 0.7 mL Eppendorf tube, purified recombinant human sirtuin (10 μM) was incubated with NAD^+ (500 μM) and activity-based probe at 37 °C for 10 min. The sample was transferred to a clear-bottom 96-well plate, placed on ice, and irradiated at 365 nm with a UV-lamp in a cold room. […] Then, destained gel was analyzed with in-gel fluorescence scanning using a Biorad ChemiDoc MP imager (excitation 532 nm, 580 nm cut-off filter and 30 nm band-pass). […]

SIRT2 = target: T2, SIRT2 (Homo sapiens, UniProt Q8IXJ6); test: Sirtuin inhibition assay (HPLC), SIRT2; type: biochemical
T2 construct: SIRT2 (38-356); made in house
T2 sequence (Q8IXJ6 38-356): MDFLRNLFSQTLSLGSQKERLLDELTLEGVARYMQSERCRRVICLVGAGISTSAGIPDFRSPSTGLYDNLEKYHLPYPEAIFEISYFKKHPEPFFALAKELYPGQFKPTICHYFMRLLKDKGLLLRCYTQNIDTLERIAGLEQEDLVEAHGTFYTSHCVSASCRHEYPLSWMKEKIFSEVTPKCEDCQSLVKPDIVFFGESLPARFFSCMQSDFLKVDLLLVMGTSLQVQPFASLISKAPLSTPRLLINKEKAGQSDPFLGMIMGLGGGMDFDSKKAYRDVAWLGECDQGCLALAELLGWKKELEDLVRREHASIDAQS
Description: as §1, §2

SIRT3 = target: T3, SIRT3 (Homo sapiens, UniProt Q9NTG7); test: Sirtuin inhibition assay (HPLC), SIRT3; type: biochemical; details: substrate H3K9Ac; 500 μM NAD+, 500 μM peptide, 10 μM sirtuin, pH 7.5, 37 °C
T3 construct: SIRT3 (102-399); made in house
T3 sequence (Q9NTG7 102-399): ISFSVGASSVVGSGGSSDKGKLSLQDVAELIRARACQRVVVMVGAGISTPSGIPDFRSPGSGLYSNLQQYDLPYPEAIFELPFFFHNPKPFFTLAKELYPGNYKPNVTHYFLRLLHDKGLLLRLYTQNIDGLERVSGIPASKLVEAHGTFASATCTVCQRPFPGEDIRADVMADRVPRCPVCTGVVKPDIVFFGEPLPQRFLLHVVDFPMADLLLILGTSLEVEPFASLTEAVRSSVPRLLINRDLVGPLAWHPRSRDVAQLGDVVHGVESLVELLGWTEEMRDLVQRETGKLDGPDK
Description: as §1, §2

| Compound | increase of SIRT5 inhibition compared with 1B (SIRT5; ratio of IC50s) | labeling of other sirtuin isoforms in sirtuin mixture ([1]; partially purified recombinant sirtuin mixture) | IC50 (SIRT2; substrate H3K9Ac, 500 μM NAD+, 500 μM peptide, 10 μM sirtuin, pH 7.5, 37 °C) | IC50 (SIRT3) | IC50 (SIRT5; substrate p53K382Ac, 500 μM NAD+, 500 μM peptide, 10 μM sirtuin, pH 7.5, 37 °C, NI = Not inhibited) | isoforms labeled in sirtuin mixture [1] | increase of SIRT2 inhibition compared with 1C (SIRT2; ratio of IC50s) | selectivity for SIRT2 over SIRT6 (SIRT2; ratio of IC50s) |
| --- | --- | --- | --- | --- | --- | --- | --- | --- |
| C#CCCCC1(CCC(=O)N[C@@H](CCCCNC(=S)CCC(=O)O)C(=O)N[C@@H](C)C(=O)N[C@@H](C)C(=O)OC)N=N1 [Probe 2B] | ~1.7 fold | negligible labeling of the other sirtuin isoforms | > 5 mM | > 5 mM | – | – | – | – |
| C#CCCCC1(CCC(=O)N[C@@H](CCCCNC(=S)CCCCCCCCCCCCC)C(=O)N[C@@H](C)C(=O)N[C@@H](C)C(=O)OC)N=N1 [Probe 2C] | – | – | – | > 2 mM | > 5 mM | highlighting SIRT1, SIRT2, and SIRT6 | 3 fold | ~2 fold |

From paper PMC7792806, “Development of Second Generation Activity-Based Chemical Probes for Sirtuins” (Molecules, 2020)
